Experimental data: ChEMBL document CHEMBL3885881, “DrugMatrix”

Organism: Rattus norvegicus
Type: toxicity, organism-based, Sprague-Dawley
Conditions: in vivo, po, route oral GAVAGE, […]; for ABSOLUTE EOSINOPHIL / ABSOLUTE LYMPHOCYTE / ABSOLUTE MONOCYTE / ABSOLUTE SEGMENTED NEUTROPHIL / BASOPHIL / EOSINOPHIL / ERYTHROCYTE COUNT / HEMATOCRIT / HEMOGLOBIN / LEUKOCYTE COUNT / LYMPHOCYTE / MEAN CORPUSCULAR HEMOGLOBIN / MEAN CORPUSCULAR HEMOGLOBIN CONCENTRATION / MEAN CORPUSCULAR VOLUME / MONOCYTE / NEUTROPHIL / NUCLEATED RED BLOOD CELLS / PLATELET COUNT: tissue Blood; for ALANINE AMINOTRANSFERASE / ALBUMIN / ALKALINE PHOSPHATASE / ASPARTATE AMINOTRANSFERASE / BLOOD UREA NITROGEN / CARBON DIOXIDE / CHLORIDE / CHOLESTEROL / CREATINE PHOSPHOKINASE / CREATININE / GLUCOSE / LACTATE DEHYDROGENASE / LIPASE / PHOSPHORUS / POTASSIUM / SODIUM / TOTAL BILIRUBIN / TOTAL PROTEIN / URIC ACID: tissue Plasma
[1] = 0 mg/kg, 6 h, vehicle control, dose level Control, time 0.25 day
[2] = 0 mg/kg, 24 h, vehicle control, dose level Control, time 1 day
[3] = 30 mg/kg, 6 h, dose level Low, time 0.25 day

Description: DrugMatrix - Regimen: Single

With S=C=Nc1cccc2ccccc12 [1-NAPHTHYLISOTHIOCYANATE] the “ABSOLUTE EOSINOPHIL” value [1] was 61.17 CELLS/uL, the “ABSOLUTE LYMPHOCYTE” value [1] was 12625.83 CELLS/uL and the “ABSOLUTE MONOCYTE” value [1] was 417.17 CELLS/uL. For the same molecule, the “ABSOLUTE SEGMENTED NEUTROPHIL” value [1] was 1595.83 CELLS/uL, the BASOPHIL [1] was 0% and the EOSINOPHIL [1] was 0.33%. The “ERYTHROCYTE COUNT” value [1] was 5.46 x10E6/uL, the HEMATOCRIT [1] was 36.02% and the HEMOGLOBIN [1] was 13.55 G/DL. The “LEUKOCYTE COUNT” value [1] was 14.7 x10E3/uL, the LYMPHOCYTE [1] was 85.83% and the “MEAN CORPUSCULAR HEMOGLOBIN” value [1] was 24.87 pg. For the same molecule, the “MEAN CORPUSCULAR HEMOGLOBIN CONCENTRATION” value [1] was 37.65 G/DL, the “MEAN CORPUSCULAR VOLUME” value [1] was 66.03 fL and the MONOCYTE [1] was 2.67%. The NEUTROPHIL [1] was 11.17%, the “NUCLEATED RED BLOOD CELLS” value [1] was 0 /100WBC and the “PLATELET COUNT” value [1] was 1072.33 x10E3/uL. The “ALANINE AMINOTRANSFERASE” value [1] was 63.33 u/L, the ALBUMIN [1] was 4.58 G/DL and the “ALKALINE PHOSPHATASE” value [1] was 285 u/L. The “ASPARTATE AMINOTRANSFERASE” value [1] was 116.5 u/L, the “BLOOD UREA NITROGEN” value [1] was 9.17 mg/dL and the “CARBON DIOXIDE” value [1] was 18.83 mmol/L. For the same molecule, the CHLORIDE [1] was 104.5 MEQ/L, the CHOLESTEROL [1] was 68.67 mg/dL and the “CREATINE PHOSPHOKINASE” value [1] was 421 u/L. The CREATININE [1] was 0.58 mg/dL, the GLUCOSE [1] was 160.67 mg/dL and the “LACTATE DEHYDROGENASE” value [1] was 396 u/L. For the same molecule, the LIPASE [1] was 10.33 u/L, the PHOSPHORUS [1] was 12.25 mg/dL and the POTASSIUM [1] was 6.42 MEQ/L. The SODIUM [1] was 142.77 MEQ/L, the “TOTAL BILIRUBIN” value [1] was 0.25 mg/dL and the “TOTAL PROTEIN” value [1] was 5.48 G/DL. For the same molecule, the “URIC ACID” value [1] was 1.65 mg/dL, the “ABSOLUTE EOSINOPHIL” value [2] was 23.83 CELLS/uL and the “ABSOLUTE LYMPHOCYTE” value [2] was 11026.5 CELLS/uL. The “ABSOLUTE MONOCYTE” value [2] was 98.5 CELLS/uL, the “ABSOLUTE SEGMENTED NEUTROPHIL” value [2] was 667.83 CELLS/uL and the BASOPHIL [2] was 0%. The EOSINOPHIL [2] was 0.17%, the “ERYTHROCYTE COUNT” value [2] was 4.92 x10E6/uL and the HEMATOCRIT [2] was 31.9%. For the same molecule, the HEMOGLOBIN [2] was 12.6 G/DL, the “LEUKOCYTE COUNT” value [2] was 11.82 x10E3/uL and the LYMPHOCYTE [2] was 93%. For the same molecule, the “MEAN CORPUSCULAR HEMOGLOBIN” value [2] was 25.7 pg, the “MEAN CORPUSCULAR HEMOGLOBIN CONCENTRATION” value [2] was 39.57 G/DL and the “MEAN CORPUSCULAR VOLUME” value [2] was 64.97 fL. The MONOCYTE [2] was 0.83%, the NEUTROPHIL [2] was 6% and the “NUCLEATED RED BLOOD CELLS” value [2] was 0 /100WBC. For the same molecule, the “PLATELET COUNT” value [2] was 872.33 x10E3/uL, the “ALANINE AMINOTRANSFERASE” value [2] was 82.67 u/L and the ALBUMIN [2] was 4.17 G/DL. For the same molecule, the “ALKALINE PHOSPHATASE” value [2] was 321.83 u/L, the “ASPARTATE AMINOTRANSFERASE” value [2] was 99.5 u/L and the “BLOOD UREA NITROGEN” value [2] was 13.33 mg/dL. For the same molecule, the “CARBON DIOXIDE” value [2] was 33.67 mmol/L, the CHLORIDE [2] was 99.83 MEQ/L and the CHOLESTEROL [2] was 64 mg/dL. The “CREATINE PHOSPHOKINASE” value [2] was 275.33 u/L, the CREATININE [2] was 0.21 mg/dL and the GLUCOSE [2] was 146.17 mg/dL. For the same molecule, the “LACTATE DEHYDROGENASE” value [2] was 101 u/L, the LIPASE [2] was 9.83 u/L and the PHOSPHORUS [2] was 8.82 mg/dL. For the same molecule, the POTASSIUM [2] was 5.51 MEQ/L, the SODIUM [2] was 143.2 MEQ/L and the “TOTAL BILIRUBIN” value [2] was 0.18 mg/dL. For the same molecule, the “TOTAL PROTEIN” value [2] was 5.83 G/DL, the “URIC ACID” value [2] was 0.63 mg/dL and the “ABSOLUTE EOSINOPHIL” value [3] was 14.83 CELLS/uL. The “ABSOLUTE LYMPHOCYTE” value [3] was 9035 CELLS/uL, the “ABSOLUTE MONOCYTE” value [3] was 384.17 CELLS/uL and the “ABSOLUTE SEGMENTED NEUTROPHIL” value [3] was 1199.33 CELLS/uL. The BASOPHIL [3] was 0%, the EOSINOPHIL [3] was 0.17% and the “ERYTHROCYTE COUNT” value [3] was 5.6 x10E6/uL. For the same molecule, the HEMATOCRIT [3] was 38.25%, the HEMOGLOBIN [3] was 13.8 G/DL and the “LEUKOCYTE COUNT” value [3] was 10.63 x10E3/uL. The LYMPHOCYTE [3] was 85.5%, the “MEAN CORPUSCULAR HEMOGLOBIN” value [3] was 24.68 pg and the “MEAN CORPUSCULAR HEMOGLOBIN CONCENTRATION” value [3] was 36.08 G/DL. For the same molecule, the “MEAN CORPUSCULAR VOLUME” value [3] was 68.37 fL, the MONOCYTE [3] was 3.67% and the NEUTROPHIL [3] was 10.67%. For the same molecule, the “NUCLEATED RED BLOOD CELLS” value [3] was 0 /100WBC, the “PLATELET COUNT” value [3] was 1129.33 x10E3/uL and the “ALANINE AMINOTRANSFERASE” value [3] was 63.33 u/L. The ALBUMIN [3] was 4.7 G/DL, the “ALKALINE PHOSPHATASE” value [3] was 419.67 u/L and the “ASPARTATE AMINOTRANSFERASE” value [3] was 128.33 u/L. The “BLOOD UREA NITROGEN” value [3] was 10.5 mg/dL, the “CARBON DIOXIDE” value [3] was 14.83 mmol/L and the CHLORIDE [3] was 104.17 MEQ/L. For the same molecule, the CHOLESTEROL [3] was 78.67 mg/dL, the “CREATINE PHOSPHOKINASE” value [3] was 651.17 u/L and the CREATININE [3] was 0.27 mg/dL. The GLUCOSE [3] was 216.83 mg/dL, the “LACTATE DEHYDROGENASE” value [3] was 402.17 u/L and the LIPASE [3] was 11.67 u/L. For the same molecule, the PHOSPHORUS [3] was 17.25 mg/dL, the POTASSIUM [3] was 7.07 MEQ/L and the SODIUM [3] was 146.68 MEQ/L. For the same molecule, the “TOTAL BILIRUBIN” value [3] was 0.23 mg/dL, the “TOTAL PROTEIN” value [3] was 6.17 G/DL and the “URIC ACID” value [3] was 3.28 mg/dL.
